Literature values, collected in patent US7319013B2, “Serine hydroxymethyltransferase as a target for herbicides” (BASF Aktiengesellschaft, priority 2002, dated 2008).

Legend:
ovine SHMT = target: T1, ovine SHMT (Ovis aries, UniProt P35623); settings: micromolar concentrations
T1 sequence (P35623 2-484 limits assumed): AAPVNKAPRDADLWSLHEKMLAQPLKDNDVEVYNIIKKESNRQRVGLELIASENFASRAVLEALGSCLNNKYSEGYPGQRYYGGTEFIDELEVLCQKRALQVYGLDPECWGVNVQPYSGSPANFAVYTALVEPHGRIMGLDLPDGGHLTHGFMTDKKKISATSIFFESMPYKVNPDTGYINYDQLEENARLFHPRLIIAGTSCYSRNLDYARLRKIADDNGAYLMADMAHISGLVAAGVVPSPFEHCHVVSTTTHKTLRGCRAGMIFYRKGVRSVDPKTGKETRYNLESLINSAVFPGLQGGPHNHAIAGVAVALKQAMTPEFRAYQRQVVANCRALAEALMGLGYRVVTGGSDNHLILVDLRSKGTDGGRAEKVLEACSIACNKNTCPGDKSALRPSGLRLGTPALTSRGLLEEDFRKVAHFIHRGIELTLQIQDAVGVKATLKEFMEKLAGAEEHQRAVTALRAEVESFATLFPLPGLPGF

[1] = system: SHMT from Euglena gracilis; settings: millimolar concentrations
SHMT from CHO cells [2] = settings: by means of photo-linkage
SHMT from CHO cells [3] = system: SHMT from CHO cells

Compound | inhibition of SHMT [1] | further results
NOC[C@@H](N)C(=O)O [O-amino-D-serine] |  | inhibitory effect on SHMT (ovine SHMT): have an inhibitory effect
N[C@@H](CS)C(=O)O [cystein] | can be inhibited | 
NCC(=O)O [glycin] | can be inhibited | 
NC(Cn1ccc(=O)c(O)c1)C(=O)O (stereo not drawn) [mimosine] |  | binding to SHMT (SHMT from CHO cells [2]): can be bound; inhibition of SHMT (SHMT from CHO cells [3]): does not inhibit it
N[C@@H](CO)C(=O)O [serine] | can be inhibited | 
